In patent US20260314597A1, “A NOVEL APPROACH TO INTERFERE IN THE PHENYLPROPANOID BIOSYNTHETIC PATHWAY TO REDUCE PINK-RIB DISORDER IN FRESH LETTUCE” (University of Florida Research Foundation, Inc., priority 2022, published 2026):
“Also recorded” adds a separate entry of the source.

What was measured:
[1] = tested on: iceberg and Romaine lettuce midribs; assay: Objective pink rib severity: a* value by RGB image analysis of cut sites; assay type: in vivo
Description: (§1) In all tests, experimental setup began immediately upon arrival to the laboratory. 90 outer leaves were randomly selected from 18 to 22 lettuce heads that met commercial and damage-free quality standards. A midrib segment (12.5 cm) was excised from the center of each leaf and excess leaf blade tissue was trimmed parallel to the midrib. This procedure was adapted from the wounding procedure of Cantwell (2016). Each midrib was then partially sliced transversally at 1.3-cm increments along the midrib. Midribs (n=15) were immediately immersed for 30 s in one of five treatment solutions: deionized water (wounded control), L-cysteine (4.1 mM), naringenin (1.8 mM) with 20% dimethyl sulfoxide (DMSO), serotonin (2.8 or 5.7 mM) or melatonin (4.3 mM) with 0.50% DMSO. Immediately following immersion, the midribs for each treatment were patted dry using paper towels and placed (n=5) in a breathable, high-density polyethylene bag (n=3) (Narrow Profile Produce Bags [14×18 inches] Model No. S-19156, Uline®, Pleasant Prairie, WI). Unwounded control midribs were stored in the same manner. To allow for direct comparison, each cut site on each midrib was assigned an initial discoloration value on day 1 based on the coloration of the rib. Samples were stored at 5° C. with 95-98% relative humidity (RH) for 5 d, simulating commercial storage.
Objective evaluations were also made after 1, 3, and 5 d by capturing an image of each wounded midrib using a digital camera (Nikon D5200, Nikon, Melville, NY, USA) under full spectrum LED lighting (Sunco Lighting, Valencia, CA, USA) with 4100 Lumens at a distance of 1.12 m. Only unwounded and treated (L-cysteine or melatonin) midribs from Test 1 were measured using this method. The camera settings were on manual mode ISO400, shutter speed 1/125, aperture 5.6, and no zoom or flash; distance from the tissue was approximately 18 inches. The white balance of the camera was set with a gray card prior to each imaging session. GNU Image Manipulation Program (GIMP, version 2.10.14; The GIMP Project c/o GNOME Foundation, Orinda, CA, USA) was used to isolate pixels from an area 1 mm in width along the length of each cut site. Because a cut site is required as a guide for pixel extraction, no data was collected from images of the unwounded midribs.
Isolated pixels were converted from the RGB to the L*a*b* color space (Commission Internationale de l'Elcairage) with the “convertColor” function in R version 4.0.0 (R Core Team, 2020), using Illuminant D65 as the white reference. The mean a* value was calculated for each group of isolated cut site pixels at each time point. In the L*a*b* color space, […] the degree of redness (+) or greenness (−); thus, the mean a* at each cut site quantified the severity of pink rib discoloration. R was also applied to subset the data, to ensure that the cut sites chosen for further analysis had similar initial color. The a* values ranged from −3 to 0 for iceberg lettuce and −6 to −3 for Romaine.
(§2) The imaging data (a* value), enzyme activity (PAL and PPO), and metabolite (chlorogenic acid) results were expressed as mean±standard error and analyzed by lettuce type (iceberg or Romaine). For imaging data, an unpaired t-test was used to identify differences within a treatment throughout storage and among treatment groups at each time point. Treatment groups were defined as wounded, unwounded, L-cysteine, and melatonin. […] Analyses of variance were performed for PAL, PPO, and metabolite analyses using SAS software (version 9.4; SAS Institute, Cary, NC) to identify differences among treatment groups. Differences among treatments groups were separated by Tukey's Honest Significant Difference (HSD) test with a confidence level of 95%. The correlation between visual rating and a* value was evaluated for significance via an F-test, from which the P-value of the correlation was calculated.

[2] = tested on: polyphenol oxidase (PPO); assay: PPO activity in treated wounded midribs; assay type: biochemical, lettuce (iceberg, Romaine); conditions: 5 d at 5° C.; for PPO activity: L-cysteine 4.1 mM or melatonin 4.3 mM; for effect on PPO activity: iceberg and Romaine
Description: as §1
PPO activity was prepared and determined as reported by Teng et al. (2019) with slight modifications. Lettuce samples (300 mg) were homogenized in 150% (w/v) chilled phosphate buffer (pH 6.2, 0.05 M). Following chilling of test tubes with samples in an ice bath, samples were centrifuged at 9660×g for 10 min at 4° C. The increase in absorbance was measured every 3 s for 1 min. The slope of the linear portion of the time curve was calculated. One unit (U) of PPO activity was defined as an increase in OD410 of 0.1 unit within 1 min.
as §2

Row | SMILES | change of a* value ([1]; L-cysteine 4.1 mM, Romaine, after 3 d (P=0.0242)) | change of a* value ([1]; L-cysteine 4.1 mM, iceberg, after 3 d (P=0.0242)) | change of a* value ([1]; L-cysteine 4.1 mM, iceberg, after 5 d (P=0.00059)) | PPO activity ([2]; Romaine, wounded control 5.1) | effect on PPO activity [2] | PPO activity ([2]; iceberg, wounded control 1.7) | change of a* value ([1]; melatonin 4.3 mM, Romaine, between days 3 and 5) | a* value versus control ([1]; melatonin 4.3 mM, Romaine, day 5, control mean 1.49) | mean a* value ([1]; melatonin 4.3 mM, Romaine, day 5 at 5° C.) | change of a* value ([1]; melatonin 4.3 mM, iceberg, throughout 5 d storage) | a* values versus control treatments, overall ([1]; melatonin, iceberg and Romaine)
1 | N[C@@H](CS)C(=O)O [L-cysteine] | increase | increased | increased | 6.4 U | no significant differences in PPO activity; also recorded: no effect on PPO activity; also recorded: neither PPO activity nor pink rib expression were reduced | 2.6 U |  |  |  |  | 
2 | COc1ccc2[nH]cc(CCNC(C)=O)c2c1 [melatonin] |  |  |  | 6.2 U | no significant differences in PPO activity; also recorded: no effect on PPO activity; also recorded: neither enzyme activity (PAL or PPO) nor chlorogenic acid concentration were impacted; also recorded: did not significantly affect PAL or PPO enzyme activities | 2.6 U | increasing | no longer significantly different | −0.67 | did not increase throughout storage | significantly lower a* values
